Legend:
[1] = Early-morning blood pressure and pulse rate in kidney transplant recipients; type: in vivo, human; details: for Diastolic blood pressure / Pulse rate: diltiazem 30 mg every 12 h
Description: All patients received a fixed dose of omeprazole 40 mg/day.
For calculation of AUC/D and C0/D, values of AUC and C0 were dose-adjusted by dividing the observed values by the dose recorded on the day of blood collection. Early-morning blood pressures were measured on the same day of blood collection for pharmacokinetic analysis by a ward nurse as part of a routine examination, during rest in a seated position with a calibrated and well-maintained automatic sphygmomanometer. Delayed graft function (DGF) was defined as failure of the kidney graft to function immediately, with the need for dialysis in the first 7 days post-KT. Episode of biopsy-proven acute rejection (BPAR) during 3 months post-KT was diagnosed based on histologic findings in indication kidney graft biopsy according to Banff 2015 criteria.

[2] = diltiazem 30 mg three times daily; day 7 after KT; CYP3A5 expressers; cited from earlier work
[3] = day 3 post-transplantation, CYP3A5 expressers (n = 11), mean ± SD
[4] = day 3 post-transplantation, CYP3A5 non-expressers (n = 9), mean ± SD
[5] = day 7 post-transplantation, CYP3A5 expressers (n = 11), mean ± SD
[6] = day 7 post-transplantation, CYP3A5 non-expressers (n = 9), mean ± SD

## COc1ccc([C@@H]2Sc3ccccc3N(CCN(C)C)C(=O)[C@@H]2OC(C)=O)cc1 [Diltiazem]
[1]; day 1 post-transplantation, CYP3A5 expressers (n = 11), mean ± SD
  Diastolic blood pressure: 89.2 ± 13.3 mmHg
[1]; day 1 post-transplantation, CYP3A5 expressers (n = 11), median (IQR)
  Pulse rate: 82.0 (74.0, 86.0) bpm
[1]; day 1 post-transplantation, CYP3A5 non-expressers (n = 9), mean ± SD
  Diastolic blood pressure: 87.4 ± 14.8 mmHg
[1]; day 1 post-transplantation, CYP3A5 non-expressers (n = 9), median (IQR)
  Pulse rate: 82.0 (73.0, 86.0) bpm
[1]; [3]
  Diastolic blood pressure: 86.8 ± 13.5 mmHg
  Pulse rate: 86.6 ± 15.4 bpm
[1]; [4]
  Diastolic blood pressure: 84.3 ± 14.0 mmHg
  Pulse rate: 82.4 ± 7.2 bpm
[1]; [5]
  Diastolic blood pressure: 77.8 ± 13.3 mmHg
  Pulse rate: 80.2 ± 11.2 bpm
[1]; [6]
  Diastolic blood pressure: 81.0 ± 7.3 mmHg
  Pulse rate: 81.8 ± 8.6 bpm
[1]; diltiazem 60 mg/day, first week post-KT
  Effects on blood pressure: No significant effects on blood pressure
[2]
  Effect of diltiazem coadministration on tacrolimus dose-adjusted trough concentration (C0/D): Significantly higher
